# Data reported in patent US10471043B2, “Compounds and methods of treating bacterial infections” (ULTUPHARMA AB, priority 2015, dated 2019).
# Read-outs that look alike come from different tables or passages of the source.
# Columns and labels:
# [1] = Kong et al 2005; cited from earlier work
# [2] = test system: Staphylococcus aureus strain LMG15975; experiment: MIC by broth micro-dilution, AM3/PBS 1:1; assay type: cell-based
# Experimental: (§1) At first (Table 1), MIC is determined by broth micro-dilution method. The test medium is Antibiotic Medium 3 (AM3; Difco Ltd) mixed with Phosphate Buffered Saline (PBS) in proportions 1:1. Selected MIC values are verified using cation-adjusted Mueller Hinton Broth (MHB; BD). Cell concentration of tested pathogen is adjusted to between 3 and 5×10^5 cells per ml. To verify cell concentration of tested pathogen, viable cell counts are performed directly after each MIC-test by dilution method with PBS as a dilution solvent. Cells are counted on the agar plates with 50% strength Vegetable Peptone Broth (50% VPB; Oxoid Ltd) after 16 to 20 h of incubation at 37° C.
# (§2) Cells of pathogen suspended in test medium are distributed to the wells and the plates are incubated for 16 to 20 h at 37° C. Negative controls are wells with the test medium only and positive controls are wells with the pathogen in test medium. The MIC is defined as the lowest concentration of each compound with no visible growth of pathogen.
# Example compounds of formula I were examined for antibacterial activity against the Gram-positive bacterium Staphylococcus aureus strain LMG15975 using the above described method (Table 1).
# Bacillus cereus = experiment: MIC by broth micro-dilution; assay type: cell-based; settings: Table 4, read-out: MIC (μg/ml) B. cereus
# Experimental: as §1, §2
# M. frederiksbergense = experiment: MIC by broth micro-dilution; assay type: cell-based; settings: Table 4; read-out: MIC (μg/ml) M. frederiksbergense
# Experimental: as §1, §2
# in vitro = settings: human, CC50 (μg/mL)
# Dutch Elm disease fungus = settings: Ayer & Villar 1985; cited from earlier work
# [3] = test system: mupirocin-resistant strains of Staphylococcus aureus; experiment: MIC against mupirocin-resistant strains; assay type: cell-based
# Experimental: as §1, §2
# S. aureus = experiment: Antimicrobial Susceptibility Test by Broth Microdilution, M07-A9 CLSI; assay type: cell-based; settings: Staphylococcus aureus
# S. epidermidis [4] = experiment: as above; assay type: cell-based; settings: Staphylococcus epidermidis
# E. faecium = experiment: as above; assay type: cell-based; settings: Enterococcus faecium; E. faecium 7, Vancomycin-resistant, Table 5; read-out: MIC
# E. faecalis = experiment: as above; assay type: cell-based; settings: Enterococcus faecalis
# Serratia marescens = experiment: MIC panel of Gram-negative bacteria (Table 7); assay type: cell-based; settings: EN0454 Serratia marescens G− PKL 3692
# Micrococcus luteus = experiment: MIC panel of Gram-negative bacteria (Table 7); assay type: cell-based; settings: EN0455 Micrococcus luteus G+ PKL 3693
# Proteus mirabilis = experiment: MIC panel of Gram-negative bacteria (Table 7); assay type: cell-based
# E. coli = experiment: MIC panel of Gram-negative bacteria (Table 7); assay type: cell-based; settings: Escherichia coli
# P. aeruginosa = experiment: MIC panel of Gram-negative bacteria (Table 7); assay type: cell-based; settings: Pseudomonas aeruginosa
# Enterobacter aerogenes = experiment: MIC panel of Gram-negative bacteria (Table 7); assay type: cell-based; settings: Klebsiella aerogenes; EN0461 Enterobacter aerogenes G− PKL 3706
# S. epidermidis [5] = experiment: MIC panel of Gram-negative bacteria (Table 7); assay type: cell-based; settings: Staphylococcus epidermidis; EN0456 S. epidermidis G+ PKL 3694
# Citrobacter sp. = experiment: MIC panel of Gram-negative bacteria (Table 7); assay type: cell-based; settings: EN0465 Citrobacter sp. G− PKL 3710
# S. typhimurium = experiment: MIC panel of Gram-negative bacteria (Table 7); assay type: cell-based; settings: Salmonella enterica; EN0466 S. typhimurium G− TH6509
# A. Pittii/nosocomialis = experiment: MIC panel of Gram-negative bacteria (Table 7); assay type: cell-based; settings: Acinetobacter pittii; EN0180 A. Pittii/nosocomialis G−
# K. oxytoca = experiment: MIC panel of Gram-negative bacteria (Table 7); assay type: cell-based; settings: Klebsiella oxytoca; EN0392 K. oxytoca G−
# K. pneumoniae = experiment: MIC panel of Gram-negative bacteria (Table 7); assay type: cell-based; settings: Klebsiella pneumoniae
# A. baumanii = experiment: MIC panel of Gram-negative bacteria (Table 7); assay type: cell-based
# [6] = Cytotoxicity assay, WST-8; settings: human, HepG2 cells, CC50 (μg/mL)
# [7] = reference markers for Caco-2 assay; cited from earlier work
# Pyricularia oryziae = settings: Miyakado et al 1982; cited from earlier work
# A. baumannii = experiment: MIC by broth micro-dilution; assay type: cell-based; settings: Acinetobacter baumannii, A. baumannii (G−), Table 2; read-out: MIC (μg/ml) A. baumannii
# Experimental: as §1, §2
# Mycobacterium smegmatis = experiment: MIC by broth micro-dilution; assay type: cell-based; settings: Mycolicibacterium smegmatis; Table 4; read-out: MIC (μg/ml) M. smegmatis
# Experimental: as §1, §2
# [8] = LMG15975, S. aureus LMG15975, Table 1, read-out: MIC
# [9] = LMG15975, S. aureus LMG15975, Table 1, read-out: MIC (μg/ml)
# [10] = LMG15975, Table 4, read-out: MIC (μg/ml) S. aureus
# [11] = S. aureus V55, mupirocin-resistant
# [12] = S. aureus V86, mupirocin-resistant
compound,measurement,setting,value
CCCCCCCc1cc(O)c(CCCCCC)c(=O)o1 [pseudopyronine B],antibacterial activities,[1],moderate to poor
"CCCCCCCCCCC1CC(O)=C(C(=O)CC)C(=O)O1 (stereo not drawn) [Ex. 10, 6-decyl-4-hydroxy-3-propionyl-5,6-dihydro-2H-pyran-2-one]",MIC,[2]; [8],1.3 to 2.6 µM
same,MIC,[2]; [9],0.4 to 0.8 µg/mL
same,MIC,Bacillus cereus,≤ 1 µg/mL
same,MIC,M. frederiksbergense,≤ 0.5 µg/mL
same,CC50 at 48 h,in vitro,60 µM
lachnellulic acid,activity against the Dutch Elm disease fungus,Dutch Elm disease fungus,active
"CCCCCCCCCC1CC(O)=C(C(=O)CC2CCCCC2)C(=O)O1 (stereo not drawn) [Ex. 14, 3-(2-cyclohexylacetyl)-4-hydroxy-6-nonyl-5,6-dihydro-2H-pyran-2-one]",MIC,"[2]; LMG15975, S. aureus LMG 15975 (SLU), Methicillin-resistant, Table 5, read-out: MIC (μg/mL)",0.25 µg/mL
same,MIC,[2]; [8],≤ 0.3 µM
same,MIC,[2]; [9],0.25 µg/mL
same,MIC,[2]; [10],≤ 0.1 µg/mL
same,MIC,Bacillus cereus,≤ 1 µg/mL
same,MIC,[3]; [11],≤0.1 µg/mL
same,MIC,[3]; [12],≤0.1 µg/mL
same,MIC,"[3]; S. aureus V321, mupirocin-resistant",≤0.1 µg/mL
same,MIC,"[3]; Staphylococcus aureus, S. aureus V308, mupirocin-resistant, read-out: MIC",≤ 0.1 µg/mL
same,MIC,"S. aureus; ATCC29213, S. aureus ATCC29213, QC strain, Table 5",2 µg/mL
same,MIC,"S. aureus; S. aureus 7280, Methicillin-resistant",2 µg/mL
same,MIC,"S. aureus; S. aureus MO17, Methicillin-sensitive, Table 5",1 µg/mL
same,MIC,"S. aureus; S. aureus PICI, Methicillin-resistant, Table 5",1 µg/mL
same,MIC,"S. epidermidis [4]; S. epidermis RO7, Methicillin-sensitive, Table 5",0.5 µg/mL
same,MIC,"S. epidermidis [4]; S. epidermis Staph 1, Methicillin-resistant",0.5 µg/mL
same,MIC,"S. epidermidis [4]; S. epidermis TA12, Methicillin-resistant, Table 5",0.5 µg/mL
same,MIC,E. faecium,1 µg/mL
same,MIC,"E. faecalis; E. faecalis 14, Vancomycin-resistant",1 µg/mL
same,MIC,"E. faecalis; E. faecalis 24, Vancomycin-sensitive, Table 5",1 µg/mL
same,MIC,Serratia marescens,> 64 µg/mL
same,MIC,Micrococcus luteus,0.5 µg/mL
same,MIC,Proteus mirabilis; EN0445 P. mirabilis ST19 G−,>64 µg/mL
same,MIC,"Proteus mirabilis; EN0457 Proteus mirabilis G− PKL 3695, read-out: MIC",> 64 µg/mL
same,MIC,"E. coli; EN001 E. coli WT, ENABLE Primary MIC panel",> 64 µg/mL
same,MIC,"E. coli; EN002 E. coli DtolC, ENABLE Primary MIC panel",> 64 µg/mL
same,MIC,"E. coli; EN003 E. coli D22 (lps mut), ENABLE Primary MIC panel",> 64 µg/mL
same,MIC,"E. coli; EN0012 E. coli, ENABLE L2C MIC panel",> 64 µg/mL
same,MIC,"E. coli; EN0013 E. coli Del-tolC, ENABLE L2C MIC panel",16 µg/mL
same,MIC,E. coli; EN0458 E. coli B G− PKL 3698,> 64 µg/mL
same,MIC,"P. aeruginosa; EN004 P. aeruginosa WT, ENABLE Primary MIC panel",> 64 µg/mL
same,MIC,"P. aeruginosa; EN005 P. aeruginosa Efflux mut, ENABLE Primary MIC panel",> 64 µg/mL
same,MIC,"P. aeruginosa; EN0014 P. aeruginosa, ENABLE L2C MIC panel",> 64 µg/mL
same,MIC,"P. aeruginosa; EN0015 P. aeruginosa Efflux mut, ENABLE L2C MIC panel",> 64 µg/mL
same,MIC,P. aeruginosa; EN0422 P. aeruginosa G−,> 64 µg/mL
same,MIC,P. aeruginosa; EN0459 P. aeruginosa G− PKL 3699,> 64 µg/mL
same,MIC,P. aeruginosa; EN0460 P. aeruginosa G− PKL 3704,> 64 µg/mL
same,MIC,Enterobacter aerogenes,> 64 µg/mL
same,MIC,S. epidermidis [5],1 µg/mL
same,MIC,Citrobacter sp.,> 64 µg/mL
same,MIC,S. typhimurium,> 64 µg/mL
same,MIC,A. Pittii/nosocomialis,> 64 µg/mL
same,MIC,K. oxytoca,> 64 µg/mL
same,MIC,"K. pneumoniae; EN006 K. pneumoniae WT, ENABLE Primary MIC panel",> 64 µg/mL
same,MIC,"K. pneumoniae; EN0010 K. pneumoniae, ENABLE L2C MIC panel (isogenic efflux pairs)",> 64 µg/mL
same,MIC,"K. pneumoniae; EN0011 K. pneumoniae Efflux mut, ENABLE L2C MIC panel",> 64 µg/mL
same,MIC,"A. baumanii; Acinetobacter baumannii, EN007 A. baumanii WT, ENABLE Primary MIC panel, read-out: MIC",> 64 µg/mL
same,MIC,"A. baumanii; EN0016 A. baumanii, ENABLE L2C MIC panel",>64 µg/mL
same,MIC,"A. baumanii; EN0017 A. baumanii Efflux mut, ENABLE L2C MIC panel",>64 µg/mL
same,CC50 at 48 h,"[6]; HepG2, 48 hours, Table 1",14 µM
same,CC50 at 48 h,"[6]; HepG2, Table 5",14 µM
CCCCCCc1c(O)cc(CCCCC)oc1=O [pseudopyronine A],antibacterial activities,[1],moderate to poor
N[C@@H](Cc1ccccc1)C(=O)O [L-Phenylalanine],absorption in man (%),[7],100%
podoblastin A,activity against the fungus Pyricularia oryziae,Pyricularia oryziae,active
"CCCCCCCCCC1CC(O)=C(C(=O)CCCC)C(=O)O1 (stereo not drawn) [Ex. 8, 4-hydroxy-6-nonyl-3-pentanoyl-5,6-dihydro-2H-pyran-2-one]",MIC,"[2]; LMG15975, S. aureus (G+), Table 2, read-out: MIC (μg/ml) S. aureus",< 0.6 µg/mL
same,MIC,[2]; [8],≤ 1.9 µM
same,MIC,[2]; [9],≤ 0.6 µg/mL
same,MIC,[2]; [10],≤ 0.6 µg/mL
same,MIC,A. baumannii,8 to 16 µg/mL
same,MIC,Bacillus cereus,≤ 1 µg/mL
same,MIC,M. frederiksbergense,≤ 4 µg/mL
same,MIC,Mycobacterium smegmatis,≤ 4 µg/mL
same,MIC,[3]; [11],≤0.1 µg/mL
same,MIC,[3]; [12],≤0.1 µg/mL
same,MIC,"[3]; Staphylococcus aureus, S. aureus V321, mupirocin-resistant, read-out: MIC",≤ 0.1 µg/mL
same,CC50 at 48 h,"[6]; HepG2, 48 hours, Table 1",36 µM
